Article PMC5218480 (PLoS ONE, 2017)

Test system: MV-4-11 cells
Test: Gene expression microarray analysis (Affymetrix PrimeView) and GSEA
Type: cell-based, human
Parameters: RFU PODN (11730768_x_at) / Fold change /veh PODN (11730768_x_at) / RFU LINC00158 (11744669_a_at) / Fold change /veh LINC00158 (11744669_a_at) / RFU DUSP10 (11751237_a_at) / Fold change /veh DUSP10 (11751237_a_at) / RFU ID3 (11757404_x_at) / Fold change /veh ID3 (11757404_x_at) / RFU PLEKHG5 (11737974_s_at) / Fold change /veh PLEKHG5 (11737974_s_at) / RFU LRRC4B (11730491_at) / Fold change /veh LRRC4B (11730491_at) / RFU GIMAP4 (11747438_a_at) / Fold change /veh GIMAP4 (11747438_a_at) / RFU KRT8 (11758183_x_at) / Fold change /veh KRT8 (11758183_x_at) / RFU CNN1 (11734310_a_at) / Fold change /veh CNN1 (11734310_a_at) / RFU VPS37D (11726825_at) / Fold change /veh VPS37D (11726825_at) / RFU C10orf10 (11716522_x_at) / Fold change /veh C10orf10 (11716522_x_at) / RFU KIR2DL2 /// KIR2DL4 /// KIR2DL5A /// KIR2DL5B /// KIR2DS1 /// KIR2DS2 /// KIR2DS3 /// KIR2DS4 /// KIR3DL3 /// KIR3DL3 /// KIR3DS1 (11738374_at) / Fold change /veh KIR2DL2 /// KIR2DL4 /// KIR2DL5A /// KIR2DL5B /// KIR2DS1 /// KIR2DS2 /// KIR2DS3 /// KIR2DS4 /// KIR3DL3 /// KIR3DL3 /// KIR3DS1 (11738374_at) / RFU C1QL1 (11718748_at) / Fold change /veh C1QL1 (11718748_at) / RFU TMPRSS4 (11747572_a_at) / Fold change /veh TMPRSS4 (11747572_a_at) / RFU HAMP (11756126_x_at) / Fold change /veh HAMP (11756126_x_at) / RFU RNFT2 (11725882_a_at) / Fold change /veh RNFT2 (11725882_a_at) / RFU NR4A2 (11747474_a_at) / Fold change /veh NR4A2 (11747474_a_at) / RFU ABCC12 (11746883_a_at) / Fold change /veh ABCC12 (11746883_a_at) / RFU TMEM136 (11760407_x_at) / Fold change /veh TMEM136 (11760407_x_at) / RFU CLDN22 /// WWC2 (11732394_at) / Fold change /veh CLDN22 /// WWC2 (11732394_at) / RFU HLA-DPB1 (11760878_x_at) / Fold change /veh HLA-DPB1 (11760878_x_at) / RFU SPINT1 (11716480_a_at) / Fold change /veh SPINT1 (11716480_a_at) / RFU GAP43 (11754022_s_at) / Fold change /veh GAP43 (11754022_s_at) / RFU A4GNT (11735810_at) / Fold change /veh A4GNT (11735810_at) / RFU PRB3 (11715151_x_at) / Fold change /veh PRB3 (11715151_x_at) / RFU TUBB4B (11761932_at) / Fold change /veh TUBB4B (11761932_at) / RFU CAPN14 (11732068_a_at) / Fold change /veh CAPN14 (11732068_a_at) / RFU TMCC2 (11721928_a_at) / Fold change /veh TMCC2 (11721928_a_at) / RFU IRGQ (11745062_a_at) / Fold change /veh IRGQ (11745062_a_at) / RFU FAM174B (11720279_a_at) / Fold change /veh FAM174B (11720279_a_at) / RFU TMPRSS4 (11748680_a_at) / Fold change /veh TMPRSS4 (11748680_a_at) / RFU FAM212B (11763350_a_at) / Fold change /veh FAM212B (11763350_a_at) / RFU PLEKHG5 (11743358_a_at) / Fold change /veh PLEKHG5 (11743358_a_at) / RFU ZSCAN30 (11745921_a_at) / Fold change /veh ZSCAN30 (11745921_a_at) / RFU CMKLR1 (11741424_a_at) / Fold change /veh CMKLR1 (11741424_a_at) / RFU LOC101060620 /// MAPK8IP1 (11723275_at) / Fold change /veh LOC101060620 /// MAPK8IP1 (11723275_at) / RFU SPTSSB (11747773_x_at) / Fold change /veh SPTSSB (11747773_x_at) / RFU PRSS12 (11739890_at) / Fold change /veh PRSS12 (11739890_at) / RFU BIN1 (11741810_x_at) / Fold change /veh BIN1 (11741810_x_at) / RFU WNT11 (11732464_a_at) / Fold change /veh WNT11 (11732464_a_at) / RFU C10orf10 (11716521_a_at) / Fold change /veh C10orf10 (11716521_a_at) / RFU C5orf56 (11738089_at) / Fold change /veh C5orf56 (11738089_at) / RFU CYB561 (11721691_x_at) / Fold change /veh CYB561 (11721691_x_at) / RFU ANKRD19P (11752326_a_at) / Fold change /veh ANKRD19P (11752326_a_at) / RFU OR2T12 /// OR2T33 /// OR2T8 (11738714_s_at) / Fold change /veh OR2T12 /// OR2T33 /// OR2T8 (11738714_s_at) / RFU VCAN (11748164_a_at) / Fold change /veh VCAN (11748164_a_at) / RFU JSRP1 (11732532_at) / Fold change /veh JSRP1 (11732532_at) / RFU KRTAP10-11 (11738290_x_at) / Fold change /veh KRTAP10-11 (11738290_x_at) / RFU MYO3A (11730013_a_at) / Fold change /veh MYO3A (11730013_a_at) / RFU EBF3 (11725865_a_at) / Fold change /veh EBF3 (11725865_a_at) / RFU CAMK2N1 (11719241_x_at) / Fold change /veh CAMK2N1 (11719241_x_at) / RFU C5orf56 (11738088_a_at) / Fold change /veh C5orf56 (11738088_a_at) / RFU OLFML3 (11715873_a_at) / Fold change /veh OLFML3 (11715873_a_at) / RFU LOC100653217 /// NTM (11731650_a_at) / Fold change /veh LOC100653217 /// NTM (11731650_a_at) / RFU MAPK11 (11762145_a_at) / Fold change /veh MAPK11 (11762145_a_at) / RFU FIZ1 (11724087_x_at) / Fold change /veh FIZ1 (11724087_x_at) / RFU OASL (11726364_x_at) / Fold change /veh OASL (11726364_x_at) / RFU SOX15 (11748057_x_at) / Fold change /veh SOX15 (11748057_x_at) / RFU CD79A (11719716_a_at) / Fold change /veh CD79A (11719716_a_at) / RFU HIST1H1D (11736915_at) / Fold change /veh HIST1H1D (11736915_at) / RFU CASKIN2 (11723855_a_at) / Fold change /veh CASKIN2 (11723855_a_at) / RFU LOC730098 (11760151_x_at) / Fold change /veh LOC730098 (11760151_x_at) / RFU OR4N2 (11742367_at) / Fold change /veh OR4N2 (11742367_at) / RFU PRRT2 (11749266_a_at) / Fold change /veh PRRT2 (11749266_a_at) / RFU SNX32 (11753110_a_at) / Fold change /veh SNX32 (11753110_a_at) / RFU CDHR5 (11726645_a_at) / Fold change /veh CDHR5 (11726645_a_at) / RFU RCAN1 (11760418_a_at) / Fold change /veh RCAN1 (11760418_a_at) / RFU FAM167A (11723789_a_at) / Fold change /veh FAM167A (11723789_a_at) / RFU FAM26E (11764081_at) / Fold change /veh FAM26E (11764081_at) / RFU ISYNA1 (11749810_s_at) / Fold change /veh ISYNA1 (11749810_s_at) / RFU ACY1 (11761880_at) / Fold change /veh ACY1 (11761880_at) / RFU 11764098_at / Fold change /veh 11764098_at / RFU SAMD14 (11745864_x_at) / Fold change /veh SAMD14 (11745864_x_at) / RFU NPB (11741838_a_at) / Fold change /veh NPB (11741838_a_at) / RFU TMPRSS6 (11731388_a_at) / Fold change /veh TMPRSS6 (11731388_a_at) / RFU KRTAP10-2 (11738614_at) / Fold change /veh KRTAP10-2 (11738614_at) / RFU ARHGAP8 /// PRR5-ARHGAP8 (11727945_x_at) / Fold change /veh ARHGAP8 /// PRR5-ARHGAP8 (11727945_x_at) / RFU KRTAP5-7 /// NADSYN1 (11734609_at) / Fold change /veh KRTAP5-7 /// NADSYN1 (11734609_at) / RFU RASL12 (11751679_a_at) / Fold change /veh RASL12 (11751679_a_at) / RFU CDKN2B (11736163_a_at) / Fold change /veh CDKN2B (11736163_a_at) / RFU PRF1 (11729649_at) / Fold change /veh PRF1 (11729649_at) / RFU, ZNF638 /// ZNF638-IT1 / Fold change vs veh, ZNF638 /// ZNF638-IT1 / RFU, PANK3 / Fold change vs veh, PANK3 / RFU, SH3YL1 / Fold change vs veh, SH3YL1 / RFU, ZEB2 / Fold change vs veh, ZEB2 / RFU, NRIP1 / Fold change vs veh, NRIP1 / RFU, PTTG1IP / Fold change vs veh, PTTG1IP / RFU, CAPN2 / Fold change vs veh, CAPN2 / RFU, MED14 / Fold change vs veh, MED14 / RFU, SNORA58 / Fold change vs veh, SNORA58 / RFU, C1orf63 / Fold change vs veh, C1orf63 / RFU, LRRFIP1 / Fold change vs veh, LRRFIP1 / RFU, NDUFAF7 / Fold change vs veh, NDUFAF7 / RFU, SLC12A2 / Fold change vs veh, SLC12A2 / RFU, IBTK / Fold change vs veh, IBTK / RFU, ESF1 / Fold change vs veh, ESF1 / Fold change vs veh, TMEM50B / RFU, TAOK1 / Fold change vs veh, TAOK1 / RFU, ACBD3 / Fold change vs veh, ACBD3 / RFU, TMA16 / Fold change vs veh, TMA16 / RFU, RWDD3 / Fold change vs veh, RWDD3 / RFU, BCAT1 / Fold change vs veh, BCAT1 / RFU, EDEM3 / Fold change vs veh, EDEM3 / RFU, TMEM33 / Fold change vs veh, TMEM33 / RFU, WDR75 / Fold change vs veh, WDR75 / RFU, AHCTF1 / Fold change vs veh, AHCTF1 / RFU, TFRC / Fold change vs veh, TFRC / RFU, ZDHHC17 / Fold change vs veh, ZDHHC17 / RFU, NOM1 / Fold change vs veh, NOM1 / RFU, ARL8B / Fold change vs veh, ARL8B / RFU, ZBTB11 / Fold change vs veh, ZBTB11 / RFU, TAMM41 / Fold change vs veh, TAMM41 / RFU, KIAA1704 /// LOC100996395 / Fold change vs veh, KIAA1704 /// LOC100996395 / RFU, ING1 / Fold change vs veh, ING1 / RFU, TRMT61B / Fold change vs veh, TRMT61B / RFU, FUBP3 / Fold change vs veh, FUBP3 / RFU, TP53 / Fold change vs veh, TP53 / RFU, TNKS2 / Fold change vs veh, TNKS2 / RFU, ZFP14 / Fold change vs veh, ZFP14 / RFU, ACTR2 / Fold change vs veh, ACTR2 / RFU, PPP3R1 / Fold change vs veh, PPP3R1 / RFU, PIK3R1 / Fold change vs veh, PIK3R1 / RFU, HNRNPA1 / Fold change vs veh, HNRNPA1 / RFU, RNF170 / Fold change vs veh, RNF170 / RFU, ZNF28 / Fold change vs veh, ZNF28 / RFU, RNGTT / Fold change vs veh, RNGTT / RFU, OGT / Fold change vs veh, OGT / RFU, BRD1 / Fold change vs veh, BRD1 / RFU, MARS / Fold change vs veh, MARS / RFU, ZNF655 / Fold change vs veh, ZNF655 / RFU, FAHD1 / Fold change vs veh, FAHD1 / RFU, BDP1 / Fold change vs veh, BDP1 / RFU, LRRCC1 / Fold change vs veh, LRRCC1 / RFU, ARID1A / Fold change vs veh, ARID1A / RFU, ZNF146 / Fold change vs veh, ZNF146 / RFU, ZNF330 / Fold change vs veh, ZNF330 / RFU, GPN3 / Fold change vs veh, GPN3 / RFU, C9orf123 / Fold change vs veh, C9orf123 / RFU, N4BP2L2 / Fold change vs veh, N4BP2L2 / RFU, ARFIP1 / Fold change vs veh, ARFIP1 / RFU, FAM179B / Fold change vs veh, FAM179B / RFU, BCL10 / Fold change vs veh, BCL10 / RFU, UHRF1BP1L / Fold change vs veh, UHRF1BP1L / RFU, BET1 / Fold change vs veh, BET1 / RFU, CNOT2 / Fold change vs veh, CNOT2 / RFU, ZNF268 / Fold change vs veh, ZNF268 / Fold change vs veh, ZNF507 / RFU, DGCR2 / Fold change vs veh, DGCR2 / RFU, WDSUB1 / Fold change vs veh, WDSUB1 / Fold change vs veh, HSP90B1 /// MIR3652 / RFU, ADSS / Fold change vs veh, ADSS / RFU, GK / Fold change vs veh, GK / RFU, ZNF148 / Fold change vs veh, ZNF148 / RFU, TAF9 / Fold change vs veh, TAF9 / RFU, SLC1A5 / Fold change vs veh, SLC1A5 / RFU, SLMO2 / Fold change vs veh, SLMO2 / RFU, ABCC4 / Fold change vs veh, ABCC4 / RFU, LOC101060439 /// RAP1B / Fold change vs veh, LOC101060439 /// RAP1B / RFU, RFX7 / Fold change vs veh, RFX7 / RFU, GTPBP10 / Fold change vs veh, GTPBP10 / RFU, CNEP1R1 / Fold change vs veh, CNEP1R1 / RFU, BIVM-ERCC5 /// ERCC5 / Fold change vs veh, BIVM-ERCC5 /// ERCC5 / RFU, ILF3 / Fold change vs veh, ILF3 / RFU 11762660_at / Fold change /veh 11762660_at / RFU VCAN (11757783_s_at) / Fold change /veh VCAN (11757783_s_at) / RFU DDX43 (11728927_at) / Fold change /veh DDX43 (11728927_at) / RFU KRT8 (11758188_x_at) / Fold change /veh KRT8 (11758188_x_at) / RFU NKD1 (11759106_at) / Fold change /veh NKD1 (11759106_at) / RFU SRD5A1 (11742802_a_at) / Fold change /veh SRD5A1 (11742802_a_at) / RFU TPSAB1 /// TPSB2 (11721975_s_at) / Fold change /veh TPSAB1 /// TPSB2 (11721975_s_at) / RFU GSTM3 (11746129_a_at) / Fold change /veh GSTM3 (11746129_a_at) / RFU IL23R (11737362_x_at) / Fold change /veh IL23R (11737362_x_at) / RFU TMEM51 (11727254_a_at) / Fold change /veh TMEM51 (11727254_a_at) / RFU PIWIL2 (11732686_x_at) / Fold change /veh PIWIL2 (11732686_x_at) / RFU ORM1 (11744905_x_at) / Fold change /veh ORM1 (11744905_x_at) / RFU CCDC152 (11743942_at) / Fold change /veh CCDC152 (11743942_at) / RFU ECM1 (11717891_a_at) / Fold change /veh ECM1 (11717891_a_at) / RFU IL23R (11748794_a_at) / Fold change /veh IL23R (11748794_a_at) / RFU TNFAIP8L3 (11732012_x_at) / Fold change /veh TNFAIP8L3 (11732012_x_at) / RFU MBOAT4 (11741988_at) / Fold change /veh MBOAT4 (11741988_at) / RFU 11764193_at / Fold change /veh 11764193_at / RFU TMEM53 (11763286_at) / Fold change /veh TMEM53 (11763286_at) / RFU MAGEB2 (11727129_at) / Fold change /veh MAGEB2 (11727129_at) / RFU TMEM200A (11744735_a_at) / Fold change /veh TMEM200A (11744735_a_at) / RFU CCDC152 (11751479_a_at) / Fold change /veh CCDC152 (11751479_a_at) / RFU FAM211A (11726209_a_at) / Fold change /veh FAM211A (11726209_a_at) / RFU RGS16 (11746705_a_at) / Fold change /veh RGS16 (11746705_a_at) / RFU VCAN (11755009_s_at) / Fold change /veh VCAN (11755009_s_at) / RFU RHOB (11743442_s_at) / Fold change /veh RHOB (11743442_s_at) / RFU RGS16 (11720943_a_at) / Fold change /veh RGS16 (11720943_a_at) / RFU RGS16 (11720944_at) / Fold change /veh RGS16 (11720944_at) / RFU, VPS4B / Fold change vs veh, VPS4B / RFU, CREB1 / Fold change vs veh, CREB1 / RFU, DNAJC13 / Fold change vs veh, DNAJC13 / RFU, GNAQ / Fold change vs veh, GNAQ / RFU, CDK5R1 / Fold change vs veh, CDK5R1 / RFU, ZRANB3 / Fold change vs veh, ZRANB3 / RFU, CUL4A / Fold change vs veh, CUL4A / RFU, CCNY / Fold change vs veh, CCNY / RFU, UFL1 / Fold change vs veh, UFL1 / RFU, COG3 / Fold change vs veh, COG3 / RFU, DIAPH2 / Fold change vs veh, DIAPH2 / RFU, SKA2 / Fold change vs veh, SKA2 / RFU, AFF3 / Fold change vs veh, AFF3 / RFU, LMF1 / Fold change vs veh, LMF1 / RFU, IPO11 / Fold change vs veh, IPO11 / RFU, DFFB / Fold change vs veh, DFFB / RFU, FOXP1 / Fold change vs veh, FOXP1 / RFU, CARD8 / Fold change vs veh, CARD8 / RFU, STRN3 / Fold change vs veh, STRN3 / RFU, ADK / Fold change vs veh, ADK / RFU, RASSF2 / Fold change vs veh, RASSF2 / RFU, WIPF1 / Fold change vs veh, WIPF1 / RFU, LARP1B / Fold change vs veh, LARP1B / RFU, RASA1 / Fold change vs veh, RASA1 / RFU, RB1 / Fold change vs veh, RB1 / RFU, PPFIA1 / Fold change vs veh, PPFIA1 / RFU, MAT2A / Fold change vs veh, MAT2A / RFU, CCT5 / Fold change vs veh, CCT5 / RFU, WDR92 / Fold change vs veh, WDR92 / RFU, CUX1 / Fold change vs veh, CUX1 / RFU, TTC7A / Fold change vs veh, TTC7A / RFU, TMEM135 / Fold change vs veh, TMEM135 / RFU, DEPTOR / Fold change vs veh, DEPTOR / RFU, CPM / Fold change vs veh, CPM / RFU, DNAJB6 / Fold change vs veh, DNAJB6 / RFU, CACNA2D3 / Fold change vs veh, CACNA2D3 / RFU, DTX4 / Fold change vs veh, DTX4 / RFU, TFCP2 / Fold change vs veh, TFCP2 / RFU, GMCL1 /// GMCL1P1 / Fold change vs veh, GMCL1 /// GMCL1P1 / RFU, AEBP2 / Fold change vs veh, AEBP2 / RFU, SNHG1 /// SNORD22 /// SNORD25 /// SNORD26 /// SNORD27 /// SNORD28 /// SNORD29 /// SNORD31 / Fold change vs veh, SNHG1 /// SNORD22 /// SNORD25 /// SNORD26 /// SNORD27 /// SNORD28 /// SNORD29 /// SNORD31 / Fold change (Aza/veh), C12orf56 (ProbeSet 11735607_a_at) / Fold change (ACY-1035/veh), C12orf56 (ProbeSet 11735607_a_at) / Fold change (Aza/veh), FGFR1OP (ProbeSet 11751329_s_at) / Fold change (ACY-1035/veh), FGFR1OP (ProbeSet 11751329_s_at) / Fold change (Aza/veh), VPS36 (ProbeSet 11739960_a_at) / Fold change (ACY-1035/veh), VPS36 (ProbeSet 11739960_a_at) / RFU SYPL1 (11715823_x_at) / Fold change /veh SYPL1 (11715823_x_at) / RFU IGFBP7 (11715501_s_at) / Fold change /veh IGFBP7 (11715501_s_at) / RFU REEP3 (11722064_at) / Fold change /veh REEP3 (11722064_at) / RFU IGLL1 (11728026_x_at) / Fold change /veh IGLL1 (11728026_x_at): dose or concentration left out as unconfirmed
Details: ProbeSet 11729384_s_at; LIST D

With `Nc1ncn([C@@H]2O[C@H](CO)[C@@H](O)[C@H]2O)c(=O)n1` [azacitidine] the “Fold change vs veh, CCNY” value was 0.82.
